Experimental data published in US9228097B2, “Phase change inks” (Xerox Corporation, priority 2013, dated 2016).

Tests used:
[1] = Solubility testing in polyethylene wax (POLYWAX 655); format: physicochemical; details: 1 g Solvent Black 3 or 2 g distearyl derivative in 50 g POLYWAX 655, 120° C. oil bath, stirred 3 h, then 1 h without stirring
Protocol: [drawing 41] molecular weight 892, were compared for solubility in polyethylene wax, a predominant component in phase change inks. 1 g of the Solvent Black 3 and 2 g of the distearyl derivative (because its molecular weight was about twice that of Solvent Black 3) were each dissolved in 50 g portions of POLYWAX 655 (Baker Petrolite) in 100 mL beakers equipped with magnetic stir bars. The solutions were placed in 120° C. oil baths and allowed to stir for 3 h, followed by cessation of stirring for 1 h, after which the solutions were poured into aluminum tins.

[2] = K-proofer print of the wax compositions on paper (darkness of the images as a sign of dissolved dye); format: physicochemical; details: polyethylene wax compositions of the solubility test applied to paper with RK Print-Coat K-proofer

CCCCCCCCCCCCCCCCCC1(CCCCCCCCCCCCCCCCC)Nc2cccc3c(/N=N/c4ccc(/N=N/c5ccccc5)c5ccccc45)ccc(c23)N1 [distearyl derivative]
solubility in polyethylene wax (solids on bottom of beaker) [1]: almost no solids appeared on the bottom of the beaker | darkness (optical density) of images versus composition containing Solvent Black 3 [2]: considerably darker

CC1(C)Nc2cccc3c(/N=N/c4ccc(/N=N/c5ccccc5)c5ccccc45)ccc(c23)N1 [Solvent Black 3, reference compound]
solubility in polyethylene wax (solids on bottom of beaker) [1]: a substantial amount of the Solvent Black 3 appeared on the bottom of its beaker
